We go through three compounds from patent US20210322350A1, “EXOGENOUS KETONE SUPPLEMENTATION COMPOSITIONS, SYSTEMS AND METHODS” (Ketone Clarity LLC, priority 2020, published 2021).

The conditions of data set [1]: consumed at 30-35 g of product; short lasting; cited from earlier work.
The conditions of data set [2]: 750 mg/kg by gavage 24 hours after 0.5 or 6 Gy radiation; cited from earlier work.
Data set [3] is described as follows: Blood ketone levels after exogenous ketone supplementation. Type of data set: in vivo, human. The text has this: Technical effect: raising blood ketone levels by currently known methods. FIG. 6 is a graphical illustration of exogenous ketone blood levels by three precursors using Medium Chain Triglycerides, ketone salts and ketone esters. […] In the healthy adult, blood ketone levels can be naturally raised from a 0.0 mmol/L baseline to 0.5 mmol/L while following a normal diet.
While MCT oil can raise blood ketone levels for a long duration, often the rise in ketone levels is nominal at best with a 0.5 mmol/L increase. Ketone salts can raise blood ketone levels to 1.5 mmol/L, but often do so with a metabolic load of heavy salt ingestion along with an undesired racemic mixture of both ‘D’ and ‘L’ isomers of BHB. The so called “ketone ester” synthetic products can raise blood ketone levels to 2-4 mmol/L when consumed at 30-35 g of product but the result is often short lasting.
FIG. 7 is a graphical illustration of D-BHB exogenous ketone blood levels.
(§1) FIG. 9 is a graphical illustration of blood levels of ketones and glucose resulting from the claimed invention. In the graphical illustration, body ketone levels increase from 1.4 mmol/L to 2.7 mmol/L after 50 minutes of consuming 10 g of D-BHB. […]

The nature of data set [4]: Systolic and diastolic blood pressure after D-BHB ingestion. Type of data set: in vivo. Particulars: 10 g; measurable within an hour, remains several hours. The text has this: FIG. 12 is a graphical illustration of improved blood pressure resulting from enhanced D-BHB levels according to the claimed invention. In addition to increasing blood ketones and lowering blood glucose, consumption of exogenous D-BHB according to the claimed invention also has a direct and measurable impact on lowering blood pressure. […] Blood pressure reduction is measurable within an hour of ingestion and is positive effects of lower blood pressure remain for several hours afterwards.

A short description of data set [5]: Sleep cycles (deep and light sleep time) with D-BHB taken prior to sleep. The class given is in vivo. The settings on record: over several sleep cycles. The text has this:
During deep sleep, a variety of functions take place in the mind and body. During deep sleep not only does physical recovery occur. The brain recuperates as well during which memories are consolidated and learning and emotions are processed. Physiologically, blood sugar levels and metabolism balance out and the immune system is energized. FIG. 11 is a graphical illustration of improved sleep time resulting from enhanced D-BHB levels according to the claimed invention based on the data detailed in Table 1.
The data gathered in Table 1 reflects unaided sleep cycles in bold together with sleep aided by 10-20 g D-BHB which is reflective of a preferred embodiment of the claimed invention. On average, unaided sleep results in approximately 1.5 hours of deep sleep in an eight hour sleep cycle. […] In a preferred and foreseen embodiment of the claimed invention, improved deep sleep is achieved as a result of exogenous ketone D-BHB supplementation.

Data set [6] is described as follows: Bone density measurements during D-BHB consumption. Type of data set: in vivo. Particulars: 10 g daily; period during which bone loss was expected. The text has this: FIG. 20 is a graphical illustration of sustained bone protection resulting from enhanced D-BHB levels according to the claimed invention. Loss of bone density can be statistically predicted and measured during specific time of life events such as post-menopause as well as during space missions for astronauts in space. […] Similar benefits against bone loss for space based applications are indicated and expected with consumption of 20 g of exogenous D-BHB daily.

Data set [7] is described as follows: Physical endurance on a measured exercise course. Type of data set: in vivo. The text has this: FIG. 16 is a graphical illustration of improved physical endurance resulting from enhanced D-BHB levels according to the claimed invention. While understanding of the mechanism of ketone enhancement of physical endurance is only beginning, there is a direct and measurable benefit of consumption of natural D-Beta HydroxyButyric acid to enhance physical exertion and post-exercise activity recovery. FIG. 16 illustrates the physical performance parameter in which a subject with and without natural D-BHB ketone supplementation is impeded by shortness of breath and muscle pain and drop in performance owing to lactic acid build-up in the body. Without natural D-BHB ketone supplementation on a measured exercise course pain and fatigue will occur after 27 minutes. […] While preferred consumption of natural D-BHB can range from 10 g-30 g of natural D-BHB, lesser or greater amounts may also be safely consumed for exercise improvement and benefits.

Data set [8] is described as follows: Sensation of hunger after waking. The class given is in vivo. Particulars: several hours after rising in the morning. The text has this:
FIG. 15 is a graphical illustration of lowered hunger resulting from enhanced D-BHB levels according to the claimed invention. While the sensation of hunger itself arises from a complex interplay of glucose, insulin and the hormone ghrelin, identification and measurement of hunger is easy and straightforward according to the claimed invention. Hunger is often a key reason why diet attempts such as attempting to follow the ketogenic diet or other diets fail. Hunger is also a significant impediment to individuals attempting to undergo a fasting state for health or other purposes. While even consuming a moderate amount such as 5 g of exogenous natural D-BHB ketone supplement can reduce the sensation of hunger, regular consumption of larger amounts such as 10 g-20 g represent a preferred embodiment of the claimed invention. […] Hunger reduction, however, is provided at any time of day according to the claimed invention and is not just morning dependent.

Data set [9] can be described thus: Gout pain and inflammation. The class given is in vivo. The text has this:
FIG. 21 is a graphical illustration of gout reduction resulting from enhanced D-BHB levels according to the claimed invention. Owing to the role of exogenous natural D-BHB as a regulatory element of the NLRP3 inflammasome, inflammations are reduced as a direct result of exogenous D-BHB supplementation. In a preferred embodiment, 10 g or more of D-Beta HydroxyButyric acid is consumed daily to reduce gout flare-ups.

Data set [10] in a line: Blood glucose levels after D-BHB consumption. The class given is in vivo, human. Here is the method: FIG. 9 is a graphical illustration of blood levels of ketones and glucose resulting from the claimed invention. In the graphical illustration, body ketone levels increase from 1.4 mmol/L to 2.7 mmol/L after 50 minutes of consuming 10 g of D-BHB. While ketone levels increase, glucose levels are decreased from 5.2 mmol/L to 4.8 mmol/L. While blood ketone rates can change rapidly as ketones are consumed through exercise or metabolic activity, the lowering of glucose often happens over a prolonged period of time. Consequently, this example is a good introduction to the regulatory effects of the ketone body D-BHB which are independent of and often outlast the energy benefits provided by exogenous ketones even after they are consumed by the body.
FIG. 14 is a graphical illustration of lowered blood glucose measured in mmol/L as a result of daily 10 g consumption resulting from enhanced D-BHB levels according to the claimed invention. Diet plays a key role in the onset and progression of Type II diabetes and pre-diabetic conditions. The hallmark indication of the progression of this disease is identified through measurement of blood glucose levels. […] In a preferred embodiment 10-20 g of D-BHB are consumed, but more or less can be utilized in other embodiments of the claimed invention.

A short description of data set [11]: Blood oxygen levels before and after D-BHB. The class given is in vivo. Particulars: 30 minutes after 10 g; from 80%. The text has this:
FIG. 13 is a graphical illustration of enhanced blood oxygen resulting from enhanced D-BHB levels according to the claimed invention.

The nature of data set [12]: Anti-depression and anti-anxiety mood enhancement. Type of data set: in vivo. Particulars: in the absence of anti-depressant and/or anti-anxiety medication; at least 10 g at least twice per day. The text has this: FIG. 18 is a graphical illustration of improved mental anti-depression and anti-anxiety activity resulting from enhanced D-BHB levels according to the claimed invention. […] While preferred consumption of natural D-BHB can range from 10 g-30 g of natural D-BHB, a best illustrative example reflects at least 10 g exogenous D-BHB supplementation at least twice per day.

Data set [13] is described as follows: Glucose/Ketone Index (GKI). The class given is in vivo, human. Here is the method: Introducing GKI: Measuring Glucose vs Ketones. FIG. 8 is a schematic illustration of the Glucose/Ketone Index. When measuring both blood ketone levels and blood glucose levels, taking reference from the Glucose/Ketone Index (GKI) can help guide a user to achieve therapeutic benefits according to the claimed invention. The Glucose/Ketone Index is measured by dividing the blood level of glucose by the blood level of ketones measured in mmol/L. By way of illustration, a healthy individual not following the ketogenic diet could have glucose levels of 5.0 mmol/L and ketone levels of 0.1 mmol/L. According to the GKI they would have a value of greater than 9 and as such would not be in ketosis. An individual following the ketogenic diet and potentially supplementing their diet with ketone salts or MCT oil may have a glucose level of 5.6 mmol/L and ketone level of 1.3 mmol/L, resulting in a GKI of 4.3. This moderate ketosis level can be useful for managing obesity and diabetes.
as §1

The next data set deals with HDAC. The settings on record: cited from earlier work.

On to `C[C@@H](O)CCOC(=O)C[C@@H](C)O` [ketone ester, (R)-3-hydroxybutyl (R)-3-hydroxybutyrate], for which the “blood ketone levels raised to” value in [1] is 2 to 4 mmol/L. Moreover, the “radiation-induced decrease of reticulocyte/erythrocyte ratio in bone marrow” value in data set [2] is listed as “significantly attenuated”.

In the case of `CC(O)CC(=O)O` [D-BHB, D-Beta-HydroxyButyric Acid], the body ketone level in data set [3] (50 minutes after consuming 10 g, from 1.4 mmol/L) was 2.7 mmol/L. Besides, the “blood ketone levels versus existing methods” value in [3] (consumption of 10-30 g) is “higher blood ketone levels”. The “systolic and diastolic blood pressure” value in [4] is “measurable decrease”. In addition, the “extension of deep sleep” value in data set [5] was “extended by over an hour”. Moreover, in data set [6], the bone density result is “bone density health and retention”. Besides, in data set [7], the post-workout recovery time result is recorded as “markedly reduced”. The “range of performance before pain and fatigue” value in [7] (27 minutes without supplementation) worked out at 44 min. Also, in data set [8], the sensation of hunger result is reported as “greater reduction to even omission of hunger sensations”. Also, the gout pain result in data set [9] (15 g, in three days) was “from extreme to very moderate”. In addition, the gout inflammation result in data set [9] (continued daily consumption, in less than one week) is given as “entirely removed gout inflammation”. In [10] (after consuming 10 g, from 5.2 mmol/L), the glucose level turned out to be 4.8 mmol/L. Further, the blood glucose level in [10] (daily 10 g consumption, baseline over 7 mmol/L) is on record as not above 4 mmol/L. This compound showed a blood oxygen level in data set [11] of 99%. In addition, the cognitive mood enhancement entry in data set [12] was “cognitive improvement”. In addition, in [13] (after consuming 10 g), the “Glucose/Ketone Index (GKI)” value worked out at 1.8. The GKI levels in [13] (regular D-BHB consumption) is listed as 1-3.

On to `CC(O)CC(=O)[O-].[Na+]` (centres unmarked) [b-OHB], for which, in the data set on HDAC (IR-injured kidney), the renal dysfunction result is “ameliorated renal dysfunction”. Moreover, the “HDAC activity in the IR-injured kidney” value with HDAC is listed as “inhibited HDAC activity”.
